Measurements: ChEMBL document CHEMBL4421733, “Inhibitors of eya2” (2012)
The source made the active and inactive calls. No cut-off for these calls is given here.

Experiments:
[1] = Binding affinity to Mg2+ ion in acetonitrile assessed as induction of shift in the maximum absorbance wavelength at 25 uM by UV spectroscopy
[2] = molecular target: T1, Protein phosphatase EYA2 (Homo sapiens) (UniProt O00167); test: Inhibition of GST-fused human Eya2 ED (253 to 538 residues) expressed in Escherichia coli at […] pre-incubated for 10 mins followed by OMFP substrate addition and further incubated for 30 mins by fluorescence based assay
T1 sequence (whole entry): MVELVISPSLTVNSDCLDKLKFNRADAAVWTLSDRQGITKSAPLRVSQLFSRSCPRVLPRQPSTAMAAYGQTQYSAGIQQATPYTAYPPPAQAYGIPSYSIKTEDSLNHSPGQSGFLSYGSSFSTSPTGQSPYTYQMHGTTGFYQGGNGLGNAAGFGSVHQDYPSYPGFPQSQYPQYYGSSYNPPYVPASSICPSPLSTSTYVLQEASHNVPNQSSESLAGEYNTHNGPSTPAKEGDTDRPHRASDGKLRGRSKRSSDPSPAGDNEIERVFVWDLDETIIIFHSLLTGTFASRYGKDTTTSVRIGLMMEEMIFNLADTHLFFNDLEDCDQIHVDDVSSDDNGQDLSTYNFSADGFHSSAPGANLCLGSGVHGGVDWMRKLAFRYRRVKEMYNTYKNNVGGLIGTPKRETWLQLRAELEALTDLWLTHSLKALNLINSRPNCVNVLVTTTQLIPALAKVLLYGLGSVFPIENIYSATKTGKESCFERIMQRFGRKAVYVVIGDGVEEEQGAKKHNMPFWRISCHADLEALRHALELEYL

[3] = Binding affinity to Mg2+ ion at 25 uM in aqueous buffers by UV spectroscopy
[4] = Binding affinity to Mg2+ ion in acetonitrile assessed as induction of shift in the maximum absorbance wavelength by UV spectroscopy
[5] = Binding affinity to Na+ ion in acetonitrile at 12.5 uM assessed as induction of shift in the maximum absorbance wavelength by UV spectroscopy
[6] = Binding affinity to Mg2+ ion assessed as induction of chemical shift at 5 mM in presence of in presence of 25 mM magnesium 1H-NMR spectroscopy
[7] = Binding affinity to Na+ ion assessed as induction of chemical shift at 5 mM by 1H-NMR spectroscopy

## Cc1ccccc1C(=O)N/N=C/c1ccc(Sc2ccccn2)o1
[1]
  Activity: Active

## C=C1[C@@H](O)[C@@H]2O[C@@]3(CC[C@H](/C=C/[C@@H](C)[C@@H]4CC(C)=C[C@@]5(O[C@H](C[C@@](C)(O)C(=O)O)CC[C@H]5O)O4)O3)CC[C@H]2O[C@@H]1[C@@H](O)C[C@H](C)[C@H]1O[C@@]2(CCCCO2)CC[C@H]1C
[2]
  inhibition: inactive

## c1cnc2c(c1)ccc1cccnc12
[2]
  inhibition: inactive

## O=C(N/N=C/c1ccc(Sc2ccccn2)o1)c1cccc(F)c1
[3]
  Activity: inactive
[4]
  Activity: Dose-dependent effect
[5]
  Activity: inactive
[6]
  Activity: -0.6 ppm
[7]
  Activity: inactive

## N[C@@H](Cc1ccccc1)C(=O)O
[2]
  inhibition: inactive
